Reference: patent publication US8163769B2, “Antibacterial compounds” (Abbott Laboratories, priority 2002, dated 2012)

Biological target: bacterial protein synthesis (S30 extract from quinolone-succeptable Streptococcus pneumoniae ATCC 46919)
Assay: Translation assay, firefly luciferase reporter system with S30 Streptococcus pneumoniae extract
Format: biochemical
Conditions: cell-free S30 Streptococcus pneumoniae extract, luciferase mRNA; read-out: IC50, concentration which caused 50% inhibition of bacterial protein synthesis
Protocol: Bacterial protein synthesis inhibitory activity of the compounds and the aformentioned commercially-available antibacterials was determined by translation assays performed using the firefly luciferase reporter system described by Murray et al., (2001), “Staphylococcus aureus Cell Extract Transcription-Translation Assay: Firefly Luciferase Reporter System for Evaluating Protein Translation Inhibitors,” Antimicrob. Agents Chemother. 45(6): 1900-1904, replacing the Staphylococcus aureus S30 extract described therein with S30 Streptococcus pneumoniae extract from quinolone-succeptable Streptococcus pneumoniae ATCC 46919, and replacing plasmid coding for the luciferase gene with mRNA (encoding produced by in vitro transcription from the plasmid pAS10rbs3) which encoded the luciferase gene with an upstream Streptococcus pneumoniae promoter and Shine-Dalgarno site.

## CC(=O)NC[C@H]1CN(c2ccc(N3CCOCC3)c(F)c2)C(=O)O1 [Linezolid]
  IC50: ~3 µM
